In patent publication US4434171A, “Dibenzazepine derivatives, pharmaceutical compositions containing them, and pharmaceutical methods using them” (Sandoz Ltd., priority 1980, dated 1984):

Assays:
[1] = target: T1, 3H-Spiperone receptors (Bos taurus, UniProt P20288); test: binding to 3H-Spiperone receptors, modified test from J. Leysen et al.; conditions: calf brain striatal tissue; 0.1 nM 3H-Spiperone; 5×10^-7 M Cinanserin; pH 7.7; 40 min at room temperature; read-out: IC50 in the neuroleptic test from J. Leysen (inhibition of specific Spiperone binding)
T1 construct: Fresh calf brain striatal tissue is homogenized; from tissue; host or cells: calf brain striatum membranes
Description: Fresh calf brain striatal tissue is homogenized in a 25 fold volume of Tris buffer (50 mM, pH 7.7, 120 mM sodium chloride) and centrifuged. The pellets are resuspended in a 22 fold volume of the Tris buffer, incubated for 15 min. at 37° C., recentrifuged and the pellets resuspended in a 300 fold volume of the Tris buffer. […] After incubation for 40 min. at room temperature, the assay mixtures are rapidly filtered through Whatman GF/B filters and washed twice with 5 ml of ice cold Tris buffer and then scintillation-counted.

[2] = system: spontaneous motor activity in male mice; test: inhibition of spontaneous motor activity in male mice (Caviezel and Baillod); format: in vivo, mouse; conditions: p.o.
Description: In particular, the compounds of the invention are useful as neuroleptic agents in the treatment of e.g. psychotic disturbances such as schizophrenia, as indicated in standard tests, e.g. by an inhibition of spontaneous motor activity in male mice on p.o. administration of from about 1 to about 50 mg/kg animal body weight of the compounds e.g. in accordance with the principles of Caviezel and Baillod (Pharm. Acta Helv. (1958), 33, 465-484).

T1 sequence (P20288 whole entry): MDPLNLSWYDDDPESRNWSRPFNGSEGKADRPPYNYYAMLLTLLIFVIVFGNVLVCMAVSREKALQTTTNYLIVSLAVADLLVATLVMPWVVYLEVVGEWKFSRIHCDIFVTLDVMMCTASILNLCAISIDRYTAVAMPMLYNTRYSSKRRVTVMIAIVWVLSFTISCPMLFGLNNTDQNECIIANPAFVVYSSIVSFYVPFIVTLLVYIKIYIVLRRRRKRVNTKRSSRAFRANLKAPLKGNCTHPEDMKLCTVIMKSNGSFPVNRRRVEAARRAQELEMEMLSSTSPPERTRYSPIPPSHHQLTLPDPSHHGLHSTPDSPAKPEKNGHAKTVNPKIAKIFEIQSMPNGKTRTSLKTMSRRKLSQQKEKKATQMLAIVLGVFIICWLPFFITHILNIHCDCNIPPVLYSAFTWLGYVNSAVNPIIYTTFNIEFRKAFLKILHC

For `CN1CCC(N2Cc3cc(Cl)ccc3Cc3ccccc32)CC1` [Example 1, 8-Chloro-5,6-dihydro-5-(1-methyl-4-piperidinyl)-11H-dibenz[b,e]azepine], the IC50 [1] was 100 nM and the “activity in inhibiting spontaneous motor activity, compared with Clozapine” value [2] was “comparable to that of Clozapine”.
